# From publication PMC7402526, “An in vitro quantitative systems pharmacology approach for deconvolving mechanisms of drug-induced, multilineage cytopenias” (PLoS Computational Biology, 2020)
# Assays:
# [1] = test system: hematopoietic stem cells (HSCs); assay: Multi-lineage toxicity assay (MLTA), HSCs: concentration-response and QSP model fit; format: cell-based, human; set-up: EmaxAP,HSC / EmaxT,HSC / Emax_drug_HSC: unitless, 0–2; ≤1 anti-proliferative, >1 adds cell killing
# Method in brief: (§1)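 Parameters come from fitting an Emax-based QSP model, with L1 regularization and Emax ranging 0–2, to vehicle-normalized, bead-corrected flow cytometry counts. Counts came from human bone marrow CD34+ cells treated from day 0 through a 6-day multi-lineage cytokine culture in SFEM II, using 2–7 donors per drug.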
# [2] = test system: multi-potent progenitors (MPPs); assay: MLTA, MPPs: concentration-response and QSP model fit; format: cell-based, human; conditions: Homo sapiens, 144 h
# Method in brief: as §1
# [3] = test system: granulocyte-macrophage progenitor (GMPs); assay: MLTA, GMPs: concentration-response and QSP model fit; format: cell-based, human; conditions: Homo sapiens, 144 h
# Method in brief: as §1
# granulocytes (Gran-lin) = assay: MLTA, Gran: concentration-response and QSP model fit; format: cell-based, human; conditions: Homo sapiens, 144 h
# Method in brief: (§2)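 Six-day flow cytometry counts, bead-normalized and expressed relative to the mean of six vehicle wells, underlie each value. Cells were primary human bone marrow CD34+ cells cultured in SFEM II with cytokines promoting multi-lineage differentiation and self-renewal.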
# monocytes (monocyte-lin) = assay: MLTA, Mono: concentration-response and QSP model fit; format: cell-based, human; conditions: Homo sapiens, Monocyte, 144 h
# Method in brief: as §2
# [4] = test system: lymphocyte progenitors (LymP); assay: MLTA, LymP: concentration-response and QSP model fit; format: cell-based, human; conditions: Homo sapiens, Lymphocyte, 144 h
# Method in brief: as §1
# B cells (B-lin) = assay: MLTA, B-lin: concentration-response and QSP model fit; format: cell-based, human; conditions: Homo sapiens, B-cell, 144 h
# Method in brief: as §1
# [5] = test system: total dead cells (totalDeadCells); assay: MLTA, total dead cells concentration-response; format: cell-based; conditions: Homo sapiens, 144 h, 6 days, normalized to vehicle control, read-out: total_dead normalized cell count
# Method in brief: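 Freeze-thawed primary human bone marrow CD34+ cells in SFEM II with cytokine cocktail, drug added day 0, 6 days at 37°C, 5% CO2. Live/dead counts by 17-parameter flow cytometry with DAPI exclusion, bead-normalized, volume-corrected to cells/mL. Normalized per donor to mean of six vehicle wells; 2–7 donors pooled.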
# [6] = QSP model fit of 6-day MLTA data
smiles,measurement,setting,value
CC(=O)c1c(C)c2cnc(Nc3ccc(N4CCNCC4)cn3)nc2n(C2CCCC2)c1=O [palbociclib],EC50,"[1]; Homo sapiens, Hematopoietic stem cell, 144 h, QSP model fit of 6-day MLTA data",166 nM
same,activity at 0.0002 µM,"[1]; Homo sapiens, Hematopoietic stem cell, 144 h, dose 0.2 nM, 6 days, normalized to vehicle control, read-out: HSCs normalized cell count",89.4%
same,activity at 0.001 µM,"[1]; Homo sapiens, Hematopoietic stem cell, 144 h, dose 1 nM, 6 days, normalized to vehicle control, read-out: HSCs normalized cell count",92%
same,activity at 0.005 µM,"[1]; Homo sapiens, Hematopoietic stem cell, 144 h, dose 5 nM, 6 days, normalized to vehicle control, read-out: HSCs normalized cell count",98.5%
same,activity at 0.025 µM,"[1]; Homo sapiens, Hematopoietic stem cell, 144 h, dose 25 nM, 6 days, normalized to vehicle control, read-out: HSCs normalized cell count",83.4%
same,activity at 0.1 µM,"[1]; Homo sapiens, Hematopoietic stem cell, 144 h, dose 100 nM, 6 days, normalized to vehicle control, read-out: HSCs normalized cell count",48.9%
same,activity at 0.5 µM,"[1]; Homo sapiens, Hematopoietic stem cell, 144 h, dose 500 nM, 6 days, normalized to vehicle control, read-out: HSCs normalized cell count",25%
same,activity at 2.5 µM,"[1]; Homo sapiens, Hematopoietic stem cell, 144 h, dose 2500 nM, 6 days, normalized to vehicle control, read-out: HSCs normalized cell count",9.86%
same,Emax,"[1]; Homo sapiens, Hematopoietic stem cell, 144 h, parameter from QSP model fitting, read-out: Emax_drug_HSC",77.6%
same,"EmaxAP,HSC","[1]; anti-proliferation component, min(1, EmaxT)",0.776
same,activity at 0.0002 µM,"[2]; dose 0.2 nM, 6 days, normalized to vehicle control, read-out: MPPs normalized cell count",86.4%
same,activity at 0.001 µM,"[2]; dose 1 nM, 6 days, normalized to vehicle control, read-out: MPPs normalized cell count",88.4%
same,activity at 0.005 µM,"[2]; dose 5 nM, 6 days, normalized to vehicle control, read-out: MPPs normalized cell count",77.3%
same,activity at 0.025 µM,"[2]; dose 25 nM, 6 days, normalized to vehicle control, read-out: MPPs normalized cell count",45.6%
same,activity at 0.1 µM,"[2]; dose 100 nM, 6 days, normalized to vehicle control, read-out: MPPs normalized cell count",23.3%
same,activity at 0.5 µM,"[2]; dose 500 nM, 6 days, normalized to vehicle control, read-out: MPPs normalized cell count",11%
same,activity at 2.5 µM,"[2]; dose 2500 nM, 6 days, normalized to vehicle control, read-out: MPPs normalized cell count",5.77%
same,Emax,"[2]; parameter from QSP model fitting, read-out: Emax_drug_MPP",0.0264%
same,EC50,[3]; [6],54.6 nM
same,activity at 0.0002 µM,"[3]; dose 0.2 nM, 6 days, normalized to vehicle control, read-out: GMPs normalized cell count",92.3%
same,activity at 0.001 µM,"[3]; dose 1 nM, 6 days, normalized to vehicle control, read-out: GMPs normalized cell count",94.2%
same,activity at 0.005 µM,"[3]; dose 5 nM, 6 days, normalized to vehicle control, read-out: GMPs normalized cell count",92.5%
same,activity at 0.025 µM,"[3]; dose 25 nM, 6 days, normalized to vehicle control, read-out: GMPs normalized cell count",76.3%
same,activity at 0.1 µM,"[3]; dose 100 nM, 6 days, normalized to vehicle control, read-out: GMPs normalized cell count",53.9%
same,activity at 0.5 µM,"[3]; dose 500 nM, 6 days, normalized to vehicle control, read-out: GMPs normalized cell count",23.9%
same,activity at 2.5 µM,"[3]; dose 2500 nM, 6 days, normalized to vehicle control, read-out: GMPs normalized cell count",4.62%
same,activity at 0.0002 µM,"granulocytes (Gran-lin); dose 0.2 nM, 6 days, normalized to vehicle control, read-out: Gran normalized cell count",94.7%
same,activity at 0.001 µM,"granulocytes (Gran-lin); dose 1 nM, 6 days, normalized to vehicle control, read-out: Gran normalized cell count",93.9%
same,activity at 0.005 µM,"granulocytes (Gran-lin); dose 5 nM, 6 days, normalized to vehicle control, read-out: Gran normalized cell count",88.2%
same,activity at 0.025 µM,"granulocytes (Gran-lin); dose 25 nM, 6 days, normalized to vehicle control, read-out: Gran normalized cell count",53.9%
same,activity at 0.1 µM,"granulocytes (Gran-lin); dose 100 nM, 6 days, normalized to vehicle control, read-out: Gran normalized cell count",21.5%
same,activity at 0.5 µM,"granulocytes (Gran-lin); dose 500 nM, 6 days, normalized to vehicle control, read-out: Gran normalized cell count",4.56%
same,activity at 2.5 µM,"granulocytes (Gran-lin); dose 2500 nM, 6 days, normalized to vehicle control, read-out: Gran normalized cell count",0.37%
same,Emax,"granulocytes (Gran-lin); parameter from QSP model fitting, read-out: Emax_drug_Gran",0.0335%
same,EC50,monocytes (monocyte-lin); [6],39.3 nM
same,activity at 0.0002 µM,"monocytes (monocyte-lin); dose 0.2 nM, 6 days, normalized to vehicle control, read-out: Mon normalized cell count",90%
same,activity at 0.001 µM,"monocytes (monocyte-lin); dose 1 nM, 6 days, normalized to vehicle control, read-out: Mon normalized cell count",106%
same,activity at 0.005 µM,"monocytes (monocyte-lin); dose 5 nM, 6 days, normalized to vehicle control, read-out: Mon normalized cell count",89.9%
same,activity at 0.025 µM,"monocytes (monocyte-lin); dose 25 nM, 6 days, normalized to vehicle control, read-out: Mon normalized cell count",58.8%
same,activity at 0.1 µM,"monocytes (monocyte-lin); dose 100 nM, 6 days, normalized to vehicle control, read-out: Mon normalized cell count",25.6%
same,activity at 0.5 µM,"monocytes (monocyte-lin); dose 500 nM, 6 days, normalized to vehicle control, read-out: Mon normalized cell count",13.2%
same,activity at 2.5 µM,"monocytes (monocyte-lin); dose 2500 nM, 6 days, normalized to vehicle control, read-out: Mon normalized cell count",23.9%
same,Emax,"monocytes (monocyte-lin); parameter from QSP model fitting, read-out: Emax_drug_Mono",14.2%
same,activity at 0.0002 µM,"[4]; dose 0.2 nM, 6 days, normalized to vehicle control, read-out: LymP normalized cell count",86.1%
same,activity at 0.001 µM,"[4]; dose 1 nM, 6 days, normalized to vehicle control, read-out: LymP normalized cell count",88%
same,activity at 0.005 µM,"[4]; dose 5 nM, 6 days, normalized to vehicle control, read-out: LymP normalized cell count",73.1%
same,activity at 0.025 µM,"[4]; dose 25 nM, 6 days, normalized to vehicle control, read-out: LymP normalized cell count",38%
same,activity at 0.1 µM,"[4]; dose 100 nM, 6 days, normalized to vehicle control, read-out: LymP normalized cell count",12.4%
same,activity at 0.5 µM,"[4]; dose 500 nM, 6 days, normalized to vehicle control, read-out: LymP normalized cell count",5.18%
same,activity at 2.5 µM,"[4]; dose 2500 nM, 6 days, normalized to vehicle control, read-out: LymP normalized cell count",4.62%
same,Emax,"[4]; parameter from QSP model fitting, read-out: Emax_drug_LymP",0.032%
same,EC50,B cells (B-lin); [6],90.6 nM
same,activity at 0.0002 µM,"B cells (B-lin); dose 0.2 nM, 6 days, normalized to vehicle control, read-out: B-lin normalized cell count",93.4%
same,activity at 0.001 µM,"B cells (B-lin); dose 1 nM, 6 days, normalized to vehicle control, read-out: B-lin normalized cell count",106%
same,activity at 0.005 µM,"B cells (B-lin); dose 5 nM, 6 days, normalized to vehicle control, read-out: B-lin normalized cell count",76.6%
same,activity at 0.025 µM,"B cells (B-lin); dose 25 nM, 6 days, normalized to vehicle control, read-out: B-lin normalized cell count",67.3%
same,activity at 0.1 µM,"B cells (B-lin); dose 100 nM, 6 days, normalized to vehicle control, read-out: B-lin normalized cell count",41.4%
same,activity at 0.5 µM,"B cells (B-lin); dose 500 nM, 6 days, normalized to vehicle control, read-out: B-lin normalized cell count",13.8%
same,activity at 2.5 µM,"B cells (B-lin); dose 2500 nM, 6 days, normalized to vehicle control, read-out: B-lin normalized cell count",8.85%
same,Emax,"B cells (B-lin); parameter from QSP model fitting, read-out: Emax_drug_B",49.9%
same,activity at 0.0002 µM,[5]; dose 0.2 nM,101%
same,activity at 0.001 µM,[5]; dose 1 nM,102%
same,activity at 0.005 µM,[5]; dose 5 nM,103%
same,activity at 0.025 µM,[5]; dose 25 nM,64.6%
same,activity at 0.1 µM,[5]; dose 100 nM,40.5%
same,activity at 0.5 µM,[5]; dose 500 nM,28.9%
same,activity at 2.5 µM,[5]; dose 2500 nM,22.7%
